# Assay results as given in patent US7129361B2, “Thienylazolylalkoxyethanamines, their preparation and their application as medicaments” (Laboratorios del Dr. Esteve, S.A., priority 1998, dated 2006).
# Tested on: Male Swiss mice
# Experiment: Analgesic activity: inhibition of contortions induced by phenylbenzoquinone in mice (Siegmund method)
# Assay type: in vivo
# Conditions: 160 mg/Kg, oral administration, 60 minutes before i.p. phenylbenzoquinone; contortions counted for 15 minutes; versus vehicle control
# Description: Analgesic Activity: Inhibition of Contortions Induced by Phenylbenzoquinone in Mice
# The method described by Siegmund (E. Siegmund, et al, Proc. Exp. Biol. Med., 1957, 95, 729) has been used. Male Swiss mice are used, weighing between 17 and 22 grams and in groups of at least four animals.
# The contortions are induced by injecting i.p. phenyl-p-benzoquinone (25 ml/Kg of a solution of 0.02% ethanol/water −5% v/v—with Evans blue at a mixing ratio of 0.1% p/v). The contortions are counted for 15 minutes after the moment of the injection. The products to be tested are suspended in Arabic gum (5% p/v) and distilled water and administered orally, at a dosage of 160 mg/Kg, 60 minutes before the phenylbenzoquinone injection. The inhibition of contortions produced by each product is determined, taking the contortions of a group of animals given a control as a reference. These animals only receive the vehicle orally, 60 minutes before administration of phenylbenzoquinone.
row,Structure (SMILES),% Inhibition of contortions [%]
1,"CN(C)CCOC(c1cccs1)c1ccnn1C.O=C(O)CC(O)(CC(=O)O)C(=O)O (stereo not drawn) [Example 12, Citrate of (+)-5-{α-[2-(dimethylamino)ethoxy]-2-thienylmethyl}-1-methyl-1H-pyrazol]",52
2,"CC(=O)Nc1ccc(O)cc1 [N-acetyl-p-aminophenol, reference compound]",34
3,"CN(C)CCOC(C)(c1cccs1)c1ccnn1C (stereo not drawn) [Example 9, 5-{1-[2-(dimethylamino)ethoxy]-1-(2-thienyl)ethyl}-1-methyl-1H-pyrazol]",37
4,"Cc1ccsc1C(OCCN(C)C)c1ccnn1C (stereo not drawn) [Example 5, 5-{α-[2-(dimethylamino)ethoxy]-3-methyl-2-thienylmethyl}-1-methyl-1H-pyrazol]",45
5,"CN(C)CCOC(c1cccs1)c1ccnn1C.O=C(O)CC(O)(CC(=O)O)C(=O)O (stereo not drawn) [Example 2, Citrate of 5-{α-[2-(dimethylamino)ethoxy]-2-thienylmethyl}-1-methyl-1H-pyrazol]",65
6,"CN(C)CCOC(c1cccs1)c1ccnn1C.O=C(O)CC(O)(CC(=O)O)C(=O)O (stereo not drawn) [Example 13, Citrate of (−)-5-{α-[2-(dimethylamino)ethoxy]-2-thienylmethyl}-1-methyl-1H-pyrazol]",87
7,"CN(C)CCOC(c1cccs1)c1ccnn1C (stereo not drawn) [Example 1, 5-{α-[2-(dimethylamino)ethoxy]-2-thienylmethyl}-1-methyl-1H-pyrazol]",71
8,"CC(=O)Oc1ccccc1C(=O)O [Acetylsalicylic acid, reference compound]",51

# Tested on: not given
# Experiment: not given
# Conditions: not given
row,Structure (SMILES),melting point [°C]
1,"Cn1nccc1C(C)(O)c1cccs1 (stereo not drawn) [Example 21, 5-[1-hydroxy-1-(2-thienyl)ethyl]-1-methyl-1H-pyrazol]",130 to 131
